Measured values as given in US4789667A, “External pharmaceutical composition and methods of use” (priority 1984, dated 1988).
Where two headings read alike, the source gives them in different places.

Columns and labels:
serum calcium level [1] = type: in vivo; conditions: rabbit, nasal, 15 units/50 microliters calcitonin, 10 parts enhancer
Experimental: This nasal drop contained 15 units/50 microliters of calcitonin. The nasal drop in a dose of 50 microliters was administered to the nasal cavity of a New Zealand rabbit (clean). The calcium concentration in the serum after administration was measured by using a calcium measuring kit (Iatoron Co.).
They were individually administered to the nasal cavity of a rabbit, and the concentration of calcium in the serum was measured.

serum calcium level [2] = assay: Serum calcium after intrarectal (Asu^1.7)-eel calcitonin suppository in rats; type: in vivo; conditions: rat, 0.7 MRC unit calcitonin, 7 parts enhancer
Experimental: (Asu^1.7)-eel calcitonin was gradually added and mixed with the mixture to form a uniform composition. The composition was slightly warmed, and filled into a suppository container to form a suppository for rats having a diameter of about 3 mm and a length of about 8 mm. This suppository contained 0.7 MRC unit of calcitonin. The suppository was intrarectally administered to a rat, and the concentration of calcium in the blood serum after administration was measured by using a calcium measuring kit (made by Iatoron Co.).
For comparison, suppositories (Comparisons 76 to 87) composed of 93 parts of cacao butter, 7 parts of the various pyroglutamates shown in Table 6 and caltitonin and a suppository composed only of cacao butter and caltitonin (Comparison 88) were prepared. They wre individually administered intrarectally to rats, and the calcium concentration in the serum was measured.

[3] = dog, in vivo
blood glucose level = assay: Blood glucose after intrarectal hog insulin gelatin capsular suppository in rabbits; type: in vivo; conditions: rabbit, 9.6 units insulin, 10 parts enhancer
Experimental: Fractionated coconut oil (90 parts) and 10 parts of each of the various pyroglutamates indicated in Table 7 were uniformly mixed, and then hog insulin was gradually added to form a uniform dispersion. The dispersion was filled in a gelatin capsule for suppositoes to form a gelatin capsular suppository. The suppository contained 9.6 units of insulin. The suppository was intrarectally administered to a rabbit and the blood glucose level after administration was measured by the glucose oxidase method.
For comparison, suppositories composed of 90 parts of fractionated coconut oil, 10 parts of the various pyroglutamates indicated in Table 7 (Comparisons 89 to 102) and insulin, and a suppository composed only of fractionated coconut oil and insulin (Comparison 103) were prepared, and tested in the same way as above.

[4] = test system: carrageenan-induced edema; assay: Carrageenan-induced edema inhibiting effect of betamethasone valerate ointment; type: in vivo; conditions: rat paw, 0.15 part betamethasone valerate, 9.85 parts enhancer, vs gel ointment base
Experimental: The carrageenan-induced edema inhibiting effect of the ointment was examined in accordance with the method of E. Passarella [Arzneim, Forsch. 30 (I), No. 4, pages 647-651 (1980)]. Specifically, 0.1 ml of a 1% carrageenan suspension in 0.9% NaCl solution was injected into the tip of the right paw of each rat (body weight 150-175 g). The volume of the paw was measured before the administation of carrageenan and 3, 5 and 6 hours after the carrageenan administration by a mercury displacement device. The ointment was well rubbed into the inflamed site in an amount of 100 mg.
These ointments were applied to the tip of the paw, and their edema inhibiting effects were examined.
The percent edema inhibitions were calculated on the basis of the edema formation ratio of a rat to which only the gel ointment base was administered.

**Q.** What does the source list for `CC(C)=CCCC(C)CCOC(=O)[C@@H]1CCC(=O)N1` (stereo partly drawn) [Compound (224), Citronyl L-pyroglutamate]?
**A.** Percent decrease of the serum calcium level from that before administration (serum calcium level [1]; 1 hr.): 9.0%; Percent decrease of the serum calcium level from that before administration (serum calcium level [1]; 2 hrs.): 6.3%; Percent decrease of the serum calcium level from that before administration (serum calcium level [1]; 3 hrs.): 2.2%; Percent decrease of the serum calcium level from that before administration (serum calcium level [1]; 5 hrs.): 0.6%; Percent decrease of the serum calcium level from that before administration (serum calcium level [2]; 1 hr.): 29.2%; Percent decrease of the serum calcium level from that before administration (serum calcium level [2]; 2 hrs.): 26.7%; Percent decrease of the serum calcium level from that before administration (serum calcium level [2]; 3 hrs.): 11.4%; Percent decrease of the serum calcium level from that before administration (serum calcium level [2]; 5 hrs.): 0.9%; Concentration of cephalothin sodium in the blood ([3]; 60 min): 300 ng/mL; Concentration of cephalothin sodium in the blood ([3]; 180 min): 400 ng/mL; Concentration of cephalothin sodium in the blood ([3]; 300 min): 300 ng/mL; Percent decrease of the blood glucose level from that before administration (blood glucose level; 30 min.): 29.2%; Percent decrease of the blood glucose level from that before administration (blood glucose level; 1 hr.): 32.1%; Percent decrease of the blood glucose level from that before administration (blood glucose level; 2 hrs.): 18.5%; Percent decrease of the blood glucose level from that before administration (blood glucose level; 3 hrs.): 3.1%; Edema inhibition ([4]; 3 hrs.): 19.5%; Edema inhibition ([4]; 6 hrs.): 38.8%; Edema inhibition ([4]; 9 hrs.): 38.5%
